System: CT26 cells
Assay: Transwell co-culture transcytosis, HUVECs and CT26 cells
Format: cell-based
Conditions: NPs applied to HUVECs in upper chamber

SMILES: O=C(N/N=C/c1ccc(O)c(O)c1)c1cc2ccccc2cc1O [dynasore]
- transfection of CT26 cells by Cy5.5-siRNA NPs in presence of endocytosis inhibitor: significantly inhibited
